This is an account of results in article PMC11357992, “Non-invasive mapping of systemic neutrophil dynamics upon cardiovascular injury” (Nature Cardiovascular Research, 2023).

Where “and” joins values, the source holds several entries; their conditions need not be identical. Equal entries are not always repeated. Where no end group is shown, it is not given here. carboxyfluorescein = N-terminal fluorescence label (CF)

In series [1] the test system is human neutrophils. Nature of the series: Migration of human neutrophils toward IL-8 (Boyden chamber). The format is cell-based. The following applies: 50 µl hNPPFCs, 1 h, 37 °C; 100 ng ml^−1 IL-8. As for the experimental part: A total of 1 × 10^6 isolated human neutrophils were incubated with or without 50 µl ^hNPPFCs for 1 h at 37 °C in 1 ml DMEM. After washing with DMEM, 1 × 10^5 of these cells were placed in a Boyden chamber containing 200 µl DMEM. The lower part of the chamber contained 100 ng ml^−1 IL-8 in 1 ml DMEM. After 1 h in an incubator, the flow through was collected, and the number of neutrophils was counted by flow cytometry. Murine neutrophils were isolated from Matrigel–LPS plugs and stained for Ly6G. Afterward, cells were washed twice, and the number of neutrophils was determined by flow cytometry.

The subject of series [2] is human lymphocytes, monocytes or neutrophils. Kind of series: Uptake of hNPPFCs/ConPFCs by human blood immune cells, flow cytometry. The format is cell-based. The following applies: for uptake by lymphocytes, raw data (flow cytometry): human lymphocytes; for uptake by lymphocytes, raw data (flow cytometry) / uptake by monocytes, raw data (flow cytometry): single samples #1-#4; for uptake by monocytes, raw data (flow cytometry): human monocytes. Here is the method:
Blood was collected from the vena brachialis, and erythrocytes were lysed as described above. After 10 min of incubation, samples were centrifuged at 350g for 10 min at 20 °C. For isolation of a purified neutrophil fraction, density gradient centrifugation was performed. Five milliliters of Ficoll 1.077 (Sigma-Aldrich) was layered on 5 ml Ficoll 1.119 (Sigma-Aldrich), and 20 ml of whole blood diluted 1:2 with PBS was carefully layered on the Ficoll 1.077. Samples were centrifuged at 350g for 20 min with low acceleration and brake. The neutrophil layer was isolated by careful aspiration and washed with PBS. Isolated cells were resuspended in MACS buffer.
Human immune cells were discriminated by staining for CD45 (BioLegend, clone HI30), CD11b (BD Biosciences, clone ICRF44), CD14 (BioLegend, clone M5E2) and CD16 (BD Biosciences, clone 3G8) (lymphocytes, CD45^+CD11b^−CD16^−; classical monocytes, CD45^+CD11b^+CD14^++CD16^−; non-classical monocytes, CD45^+CD11b^+CD14^+CD16^++; neutrophils, CD45^+CD11b^+CD16^+). Murine immune cells were discriminated by staining for CD45 (BD Biosciences, clone 30-F11), CD11b (BioLegend, clone M1/70), Ly6G (BD Biosciences, clone 1A8), Ly6C (BioLegend, clone HK1.4) and F4/80 (BioLegend, clone BM8) (lymphocytes, CD45^+CD11b^−Ly6G^−; classical monocytes, CD45^+CD11b^+Ly6G^−Ly6C^hi; non-classical monocytes, CD45^+CD11b^+Ly6G^−Ly6C^lo; neutrophils, CD45^+CD11b^+Ly6G^+; eosinophils, CD45^+CD11b^+Ly6G^+SSC^hiFSC^lo). Both human and murine cells were stained for 20 min at 4 °C, followed by washing with 200 µl MACS buffer.
If not mentioned otherwise, neutrophil-specific peptide or Con (both at 1 µg ml^−1) were incubated for 20 min at 4 °C, while ^NPPFCs or ^ConPFCs were incubated at a concentration of 10 µl ml^−1 for the indicated period of time, followed by two washing steps with 200 µl MACS buffer.
A total of 1 × 10^6 cells were incubated with 10 µl of the emulsion over a period of 80 min at 37 °C. At distinct time points, 50 µl of the samples were transferred into 2 ml of ice-cold MACS buffer and analyzed for rhodamine fluorescence by flow cytometry.
(§1) Extended Data Fig. 8 Physicochemical properties and cellular uptake of ^hNPPFCs. a, Cellular uptake of ^hNPPFCs by human monocyte subsets and neutrophils: Human immune cells isolated from the blood of healthy volunteers were incubated with ^hNPPFCs. Subsequently, cells were stained with CD11b, CD14 and CD16 to differentiate between neutrophils (red), classical monocytes (gray) and non-classical monocytes (blue) and the cells were analyzed by flow cytometry. The cellular uptake of ^hNPPFCs was determined under unstimulated conditions (top) and after treatment with 1 µg/ml LPS (bottom). b, Physicochemical properties of the generated nanotracers: Characterization of size, size distribution and ζ potential of ^MalPFCs and targeting PFCs (^hNPPFCs, ^ConPFCs) by dynamic light scattering (DLS). The rhodamine fluorescence signal of the PCS was determined by IVIS imaging and the ^19F content by ^19F MRI. c-e, Cryo transmission electron microscopy of the generated nanotracers: c, Cryo transmission electron microscopy (cryo-TEM) of ^hNPPFCs and ^ConPFCs. Graphs: The diameter of the PFCs was determined manually from three images categorized into 25 nm groups. […] Data are derived from three images for ^hNPPFCs and ^ConPFCs each. d, Box plot (box and whiskers; min to max) of the diameter of ^ConPFCs/^hNPPFCs calculated from cryo-TEM images. e, Relative amount of liposomes (%) in individual cryo-TEM images. The number of PFCs and liposomes was manually determined (n = 4/5 images). Red arrows in the cryo-TEM images indicate liposomes. Data are mean values ± SD of n = 5-6 (a), n = 3-6 (b), n = 3 (c), n = 3 (d) and n = 6 (e) independent experiments; *** = p < 0.001, verified by one-way ANOVA (a). Source data
In general terms: In flow cytometry, cells or beads pass a laser one at a time.

A short description of series [3]: Dynamic light scattering and ζ potential of PFCs. The class given is physicochemical. The following applies: panel B raw data, single replicates #1-#6. As for the experimental part:
Dynamic light scattering and the ζ potential were measured as described previously[9],[32] at 25 °C using a Nanotrac Wave II analyzer (Microtrac) driven by Microtrac FLEX Software 3.4.
as §1

On to “hNPPFCs: PEGylated rhodamine-labeled perfluorocarbon nanoemulsion coupled with human neutrophil-specific peptide hNP (carboxyfluorescein-DLVTSKLQVGGGC; also: C-terminal Cys coupled via maleimide-PEG2000-DSPE to rhodamine-labelled perfluorocarbon nanoemulsion)”, for which the “migration of human neutrophils toward IL-8” value in series [1] is recorded as “no evidence for any changes in their chemotactic properties”. Besides, in series [2] (Ctrl donors, time 0, single samples #1-#8), the “uptake by neutrophils, Ctrl - hNPPFCs, raw data” value was 68.6 and 64 and 91.8 and 102 and 91.2 and 87.9 and 78.2 and 76.6. For the same substance, the “uptake by human monocytes and their subtypes, flow cytometry” value in series [2] (also under LPS stimulation (1 µg/ml)) was “only minor uptake”. For the same substance, the “uptake by lymphocytes, raw data (flow cytometry)” value in series [2] (incubation 0 min) was 14.8 and 22.7 and 17.1 and 13; in series [2] (incubation 40 min) it was 125 and 107 and 139 and 206; in series [2] (incubation 80 min), 149 and 177 and 157 and 227. Moreover, the “uptake by monocytes, raw data (flow cytometry)” value is 41.4 and 45.1 and 42.3 and 29.9 in series [2] (incubation 0 min); 285 and 252 and 274 and 459 in series [2] (incubation 10 min); 318 and 557 and 425 and 621 in series [2] (incubation 20 min); 616 and 798 and 629 and 741 in series [2] (incubation 40 min); 938 and 1088 and 771 and 1126 in series [2] (incubation 80 min). In addition, in series [2] (human neutrophils, incubation 0 min, single samples #1-#9), the “uptake by neutrophils, raw data (flow cytometry)” value is 76.6 and 91.8 and 102 and 91.2 and 87.9 and 78.2. For the same substance, the “binding to human lymphocytes, flow cytometry” value in series [2] (immune cells from human blood) is “no binding to lymphocytes”. Also, in series [2] (immune cells from human blood), the “binding to human neutrophils, flow cytometry” value was “avidly bound to neutrophils”. In series [2] (of all human neutrophils in the authors' samples (CD177 not present on all)), the “human neutrophils labeled by hNPPFCs” value is 50–60%. Further, the PDI in series [3] (dynamic light scattering) is 0.08 and 0.07. Further, the Size in series [3] (dynamic light scattering) was 91.7 and 97.8 and 100.7 and 101.3 and 102.8 and 95.3. The zeta potential in series [3] was -30.64 and -34.35 and -35.76 and -32.06 and -35.94 and -33.07.
